Results on three compounds are retold here after patent EP0046337A2, “Triazole compounds, a process for preparing them, their use as plant and pharmaceutical fungicides and as plant growth regulators and compositions containing them” (IMPERIAL CHEMICAL INDUSTRIES PLC, priority 1980, dated 1982).

Holding throughout (type): in vivo
Assay [1] concerns PUCCINIA RECONDITA (WHEAT). Put plainly: Foliar fungal disease test on plants: Puccinia recondita on wheat. Particulars: 100 ppm active ingredient spray and root drench approximately 40 ppm a.i./dry soil, one or two days before inoculation, assessed four to fourteen days after inoculation. As for the experimental part: (§1) The compounds were tested against a variety of foliar fungal diseases of plants. The technique employed was as follows. The plants were grown in John Innes Potting Compost (No 1 or 2) in 4 cm diameter minipots. A layer of fine sand was placed at the bottom of the pots containing the dicotyledonous plants to facilitate uptake of test compound by the roots. The test compounds were formulated either by bead milling with aqueous Dispersol T or as a solution in acetone or acetone/ethanol which was diluted to the required concentration immediately before use. For the foliage diseases, suspensions (100 ppm active ingredient) were sprayed […]. Exceptions to this were the tests on Botrytis cinerea and Venturia inaequalis. The sprays were applied to maximum retention and the root drenches to a final concentration equivalent to approximately 40 ppm a.i./dry soil. Tween 20, to give a final concentration of 0.05%, was added when the sprays were applied to cereals. For most of the tests the compound was applied to the soil (roots) and to the foliage (by spraying) one or two days before the plant was inoculated with the diseases. An exception was the test on Erysiphe graminis in which the plants were inoculated 24 hours before treatment. After inoculation, the plants were put into an appropriate environment to allow infection to take place and then incubated until the disease was ready for assessment. The period between inoculation and assessment varied from four to fourteen days according to the disease and environment. The disease control was recorded by the following grading:- • 4 = no disease • 3 = trace - 5% of disease on untreated plants • 2 = 6-25% of disease on untreated plants • 1 = 26-59% of disease on untreated plants • 0 = 60-100% of disease on untreated plants

Assay [2] deals with ERYSIPHE GRAMINIS (BARLEY). As to the kind of experiment: Foliar fungal disease test on plants: Erysiphe graminis on barley. The note with it: 100 ppm active ingredient spray and root drench approximately 40 ppm a.i./dry soil, plants inoculated 24 hours before treatment. The procedure:
as §1

Assay [3] deals with BOTRYTIS CINEREA (GRAPE). As to the kind of experiment: Foliar fungal disease test on plants: Botrytis cinerea on grape. The note with it: 100 ppm active ingredient, named as an exception to the usual way of application, treatment one or two days before inoculation. The procedure: as §1, with “For most of the tests the compound was applied to the soil (roots) and to the foliage (by spraying) one or two days before the plant was inoculated with the diseases. An exception was the test on Erysiphe graminis in which the plants were inoculated 24 hours before treatment.” left out, “The period between inoculation and assessment varied from four to fourteen days according to the disease and environment.” left out

For assay [4], the system named is CERCOSPORA ARACHIDICOLA (PEANUT). As to the kind of experiment: Foliar fungal disease test on plants: Cercospora arachidicola on peanut. Particulars: 100 ppm active ingredient spray and root drench approximately 40 ppm a.i./dry soil, one or two days before inoculation. The procedure: as §1
In assay [5] the test system is VENTURIA INEQUALIS (APPLE). Put plainly: Foliar fungal disease test on plants: Venturia inaequalis on apple. The note with it: 100 ppm active ingredient, named as an exception to the usual way of application, treatment one or two days before inoculation. As for the experimental part:
as §1

In the case of `OC(Cn1cncn1)(c1ccccc1)c1cccs1` (centres unmarked) [Compound 1A, 1-(1,2,4-Triazol-1-yl)-2-phenyl-2-(2-thienyl)ethan-2-ol], the “disease control grading, PUCCINIA RECONDITA (WHEAT)” value (“disease control grading … (WHEAT)” for short) in assay [1] is given as 3 (3 = trace - 5% of disease on untreated plants). Besides, the “disease control grading, ERYSIPHE GRAMINIS (BARLEY)” value (from here on “disease control grading … (BARLEY)”) in assay [2] is given as 4 (4 = no disease). For the same compound, the “disease control grading, BOTRYTIS CINEREA (GRAPE)” value in assay [3] was 0 (0 = 60-100% of disease on untreated plants). In addition, the “disease control grading, CERCOSPORA ARACHIDICOLA (PEANUT)” value (“disease control grading … (PEANUT)” for short) in assay [4] is 0 (0 = 60-100% of disease on untreated plants). Further, the “disease control grading, VENTURIA INEQUALIS (APPLE)” value (“disease control grading … (APPLE)” for short) in assay [5] is 0 (0 = 60-100% of disease on untreated plants).
In the case of `OC(Cn1cncn1)(c1ccc(Cl)s1)c1ccc(Cl)cc1Cl` (stereo not drawn) [Compound 11A, 1-(1,2,4-Triazol-l-yl)-2-(2,4-dichloroplienyl)-2-(5-chlorothien-2-yl) ethan-2-ol], the “disease control grading … (WHEAT)” value in assay [1] was 4 (4 = no disease). The “disease control grading … (BARLEY)” value in assay [2] was 4 (4 = no disease). In assay [4], the “disease control grading … (PEANUT)” value is 3 (3 = trace - 5% of disease on untreated plants). In addition, in assay [5], the “disease control grading … (APPLE)” value is 4 (4 = no disease).
Consider `OC(Cn1cnnc1)(c1ccc(Cl)s1)c1ccc(Cl)cc1Cl` (centres unmarked) [Compound 11B, 1-(1,2,4-Triazol-4-yl)-2-(2,4-dichlorophenyl)-2-(5-chloro-thlen-2-yl) ethan-2-ol], for which the “disease control grading … (WHEAT)” value in assay [1] was 4 (4 = no disease). The “disease control grading … (BARLEY)” value in assay [2] was 4 (4 = no disease). Moreover, the “disease control grading, BOTRYTIS CINEREA (GRAPE)” value in assay [3] is recorded as 0 (0 = 60-100% of disease on untreated plants). Also, the “disease control grading … (PEANUT)” value in assay [4] is 1 (1 = 26-59% of disease on untreated plants). The “disease control grading … (APPLE)” value in assay [5] was 1 (1 = 26-59% of disease on untreated plants).
